From publication PMC10609013, “Solubility and Thermodynamic Analysis of Isotretinoin in Different (DMSO + Water) Mixtures” (Molecules, 2023)

Experiment: Shake flask solubility of ITN in {DMSO (1) + H2O (2)} mixes, HPLC
Format: physicochemical
Conditions: 101.1 kPa
Method: A series of {DMSO (1) + H2O (2)} solutions, with DMSO mass percentages ranging from 0.10 to 0.90, was examined. Three replicates of each {DMSO (1) + H2O (2)} combination were taken. ITN’s mole fraction solubility versus mass fraction of DMSO (m = 0.0–1.0) and neat DMSO and H2O was measured using a shake flask approach at 298.2–318.2 K and 101.1 kPa. In essence, the known amounts of each {DMSO (1) + H2O (2)} combination and neat DMSO and H2O were combined with extra ITN crystals in triplicate. The equilibrium was achieved by saturating the resultant mixes in a WiseBath® WSB shaking water bath (Model WSB-18/30/-45, Daihan Scientific Co. Ltd., Seoul, Korea) at a shaking speed of 100 rpm for 72 h. In order to evaluate the equilibrium time, the preliminary experiments were performed at different time intervals. […] The saturated solutions were again removed from the shaker after they had reached equilibrium and centrifuged for 30 min at 5000 rpm. A previously established environmentally friendly HPLC method was used to assess the ITN content after the supernatants were isolated and diluted (as required). The identification of ITN was carried out via a Nucleodur (dimensions: 150 mm × 4.6 mm and particle size: 5 μm) reversed-phase C18 analytical column at 298.2 K. The environmentally friendly mobile used was a binary mixture of ethyl acetate and ethanol (50:50% v v^−1). The mobile phase was delivered with a flow speed of 1 mL min^−1. The ITN measurements were performed at a wavelength of 354 nm. The sample volume was 20 μL, which was injected using a Waters autosampler. The Analytical GREEnness (AGREE) score was determined to evaluate the eco-friendliness nature of the HPLC method. The AGREE score was predicted to be 0.76 for the present HPLC method, indicating the eco-friendly nature of the HPLC method. ITN mole fraction solubilities (xe) were calculated using their standard formulae described in our previous work.

CC1=C(/C=C/C(C)=C/C=C/C(C)=C\C(=O)O)C(C)(C)CCC1 [ITN, isotretinoin]
xe experimental solubility (DMSO mass fraction m = 0.0, T = 298.2 K): 3.10 (0.07) × 10^−7 mole fraction
xe experimental solubility (DMSO mass fraction m = 0.0, T = 303.2 K): 4.60 (0.15) × 10^−7 mole fraction
xe experimental solubility (DMSO mass fraction m = 0.0, T = 308.2 K): 7.50 (0.18) × 10^−7 mole fraction
xe experimental solubility (DMSO mass fraction m = 0.0, T = 313.2 K): 1.10 (0.02) × 10^−6 mole fraction
xe experimental solubility (DMSO mass fraction m = 0.0, T = 318.2 K): 1.50 (0.03) × 10^−6 mole fraction
xe experimental solubility (DMSO mass fraction m = 0.1, T = 298.2 K): 1.12 (0.02) × 10^−6 mole fraction
xe experimental solubility (DMSO mass fraction m = 0.1, T = 303.2 K): 1.59 (0.03) × 10^−6 mole fraction
xe experimental solubility (DMSO mass fraction m = 0.1, T = 308.2 K): 2.45 (0.05) × 10^−6 mole fraction
xe experimental solubility (DMSO mass fraction m = 0.1, T = 313.2 K): 3.47 (0.06) × 10^−6 mole fraction
xe experimental solubility (DMSO mass fraction m = 0.1, T = 318.2 K): 4.61 (0.11) × 10^−6 mole fraction
xe experimental solubility (DMSO mass fraction m = 0.2, T = 298.2 K): 3.83 (0.08) × 10^−6 mole fraction
xe experimental solubility (DMSO mass fraction m = 0.2, T = 303.2 K): 5.28 (0.17) × 10^−6 mole fraction
xe experimental solubility (DMSO mass fraction m = 0.2, T = 308.2 K): 7.87 (0.21) × 10^−6 mole fraction
xe experimental solubility (DMSO mass fraction m = 0.2, T = 313.2 K): 1.10 (0.01) × 10^−5 mole fraction
xe experimental solubility (DMSO mass fraction m = 0.2, T = 318.2 K): 1.42 (0.02) × 10^−5 mole fraction
xe experimental solubility (DMSO mass fraction m = 0.3, T = 298.2 K): 1.36 (0.01) × 10^−5 mole fraction
xe experimental solubility (DMSO mass fraction m = 0.3, T = 303.2 K): 1.82 (0.03) × 10^−5 mole fraction
xe experimental solubility (DMSO mass fraction m = 0.3, T = 308.2 K): 2.57 (0.04) × 10^−5 mole fraction
xe experimental solubility (DMSO mass fraction m = 0.3, T = 313.2 K): 3.43 (0.06) × 10^−5 mole fraction
xe experimental solubility (DMSO mass fraction m = 0.3, T = 318.2 K): 4.29 (0.07) × 10^−5 mole fraction
xe experimental solubility (DMSO mass fraction m = 0.4, T = 298.2 K): 4.68 (0.07) × 10^−5 mole fraction
xe experimental solubility (DMSO mass fraction m = 0.4, T = 303.2 K): 6.06 (0.08) × 10^−5 mole fraction
xe experimental solubility (DMSO mass fraction m = 0.4, T = 308.2 K): 8.23 (0.10) × 10^−5 mole fraction
xe experimental solubility (DMSO mass fraction m = 0.4, T = 313.2 K): 1.08 (0.01) × 10^−4 mole fraction
xe experimental solubility (DMSO mass fraction m = 0.4, T = 318.2 K): 1.32 (0.02) × 10^−4 mole fraction
xe experimental solubility (DMSO mass fraction m = 0.5, T = 298.2 K): 1.65 (0.04) × 10^−4 mole fraction
xe experimental solubility (DMSO mass fraction m = 0.5, T = 303.2 K): 2.05 (0.05) × 10^−4 mole fraction
xe experimental solubility (DMSO mass fraction m = 0.5, T = 308.2 K): 2.69 (0.06) × 10^−4 mole fraction
xe experimental solubility (DMSO mass fraction m = 0.5, T = 313.2 K): 3.31 (0.07) × 10^−4 mole fraction
xe experimental solubility (DMSO mass fraction m = 0.5, T = 318.2 K): 3.96 (0.08) × 10^−4 mole fraction
xe experimental solubility (DMSO mass fraction m = 0.6, T = 298.2 K): 5.70 (0.10) × 10^−4 mole fraction
xe experimental solubility (DMSO mass fraction m = 0.6, T = 303.2 K): 6.88 (0.12) × 10^−4 mole fraction
xe experimental solubility (DMSO mass fraction m = 0.6, T = 308.2 K): 8.57 (0.17) × 10^−4 mole fraction
xe experimental solubility (DMSO mass fraction m = 0.6, T = 313.2 K): 1.08 (0.01) × 10^−3 mole fraction
xe experimental solubility (DMSO mass fraction m = 0.6, T = 318.2 K): 1.22 (0.02) × 10^−3 mole fraction
xe experimental solubility (DMSO mass fraction m = 0.7, T = 298.2 K): 2.02 (0.03) × 10^−3 mole fraction
xe experimental solubility (DMSO mass fraction m = 0.7, T = 303.2 K): 2.33 (0.05) × 10^−3 mole fraction
xe experimental solubility (DMSO mass fraction m = 0.7, T = 308.2 K): 2.79 (0.06) × 10^−3 mole fraction
xe experimental solubility (DMSO mass fraction m = 0.7, T = 313.2 K): 3.24 (0.07) × 10^−3 mole fraction
xe experimental solubility (DMSO mass fraction m = 0.7, T = 318.2 K): 3.66 (0.08) × 10^−3 mole fraction
xe experimental solubility (DMSO mass fraction m = 0.8, T = 298.2 K): 6.97 (0.10) × 10^−3 mole fraction
xe experimental solubility (DMSO mass fraction m = 0.8, T = 303.2 K): 7.81 (0.12) × 10^−3 mole fraction
xe experimental solubility (DMSO mass fraction m = 0.8, T = 308.2 K): 8.96 (0.20) × 10^−3 mole fraction
xe experimental solubility (DMSO mass fraction m = 0.8, T = 313.2 K): 1.02 (0.01) × 10^−2 mole fraction
xe experimental solubility (DMSO mass fraction m = 0.8, T = 318.2 K): 1.15 (0.01) × 10^−2 mole fraction
